Data on 1 molecule can be found in ChEMBL document CHEMBL2406925, “Confirmation of quinolone-induced formation of gyrase-DNA conjugates using AFM” (Bioorg Med Chem Lett, 2013).

The test system of assay [1] is Escherichia coli. In words: Stabilization of reversible Escherichia coli DNA gyrase-pBR322 DNA complex at 20 uM after 15 mins by AFM image analysis.
The subject of assay [2] is Escherichia coli. Briefly: Induction of Escherichia coli DNA gyrase-mediated pBR322 DNA cleavage at 5 to 20 uM after 30 mins by agarose gel electrophoresis.

Activity calls are given as the source filed them. The rule behind the calls is not given here.

As for `CCn1cc(C(=O)O)c(=O)c2cc(F)c(N3CCNCC3)cc21`, the result in the assay with Escherichia coli [1] and with Escherichia coli [2] was Active.
